Source: patent US6531645B1, “RAS/P21 transgenic mouse” (University of South Florida, priority 2000, dated 2003)

Tested on: mammary tumors of MMTV/v-Ha-ras/p21WAF1 (−/−) transgenic mice
Assay: Antitumor efficacy of FTI-2148 in MMTV/v-Ha-ras/p21WAF1 (−/−) transgenic mice
Format: in vivo, mouse
Settings: 50 mg/Kg/day by subcutaneous osmotic mini-pump
Description: The MMTV/v-Ha-Ras/p21waf(−/−) transgenic mice are generated as described herein. When the three mammary tumors reach 4500 mm^3, 2000 mm^3 and 900 mm^3 (see FIG. 1), the mice are implanted subcutaneously with an osmotic mini-pump that delivers 50 mg/Kg/day of the farnesyltransferase inhibitor FTI-2148 that was designed to block oncogenic H-Ras malignant transformation. […] Thus, within 6 days of drug treatment one skilled in the art can determine whether a drug has antitumor activity.
Tumor Development Monitoring and Sample Collection. The female offspring are monitored weekly for tumors by observation and palpation. Tumor diameters are measured in three dimensions using calipers, and tumor volume is calculated as length x width x height. Samples of tumor and normal tissue are collected in 10% neutral buffered formalin for histopathologic analysis. All surgical and experimental procedures performed on the mice are in accordance the NIH guidelines outlined in the “Guide for Care and Use of Laboratory Animals” (NIH publication 85-23). Animals are autopsied immediately after sacrifice, and external as well as internal organs are grossly examined. Representative tissue samples are obtained from salivary glands, mammary glands, lungs, liver, kidneys, spleen, and Harderian (lacrimal) glands. For general microscopy, tissues are embedded in paraffin, and 3 μm-thick sections are cut and stained with hematoxylin and eosin. Tissues are also processed using either an avidin-biotin complex method or a labeled streptavidin-biotin method after antigen retrieval. […] Negative and positive controls include the omission of the primary antibody and normal or tumor tissues with known high marker expression. p21^WAF1/CIP1 expression is analyzed by immunohistochemistry with an anti-p21 antibody (sc-397-G, Santa Cruz Biotechnology). […]

CSCC[C@H](NC(=O)c1ccc(CNCc2cnc[nH]2)cc1-c1ccccc1C)C(=O)O [FTI-2148]
fate by day 15 of one of the three mammary tumors (day 15): one tumor disappears
tumor volume by day 15 of the two tumors that started out at 4500 mm^3 and 2000 mm^3 (day 15): less than 500 mm^3
time of treatment within which the tumors start to regress (three mammary tumors of 4500, 2000 and 900 mm^3 at start): ≤ 6 days
